Source: patent US12377110B2, “Fospropofol methods and compositions” (Epalex Corporation, priority 2019, dated 2025)

Test system: moderate to severe migraine headache
Test: Study A17: clinical course (headache pain, most bothersome symptom, associated migraine symptoms)
Assay type: in vivo, human
Settings: 800 mg oral
Description: The study is planned to complete approximately 85 subjects. • Enrolled subjects will be asked to come to the study site for treatment when they experience a qualifying migraine headache. Dosing must occur within 4 hours after onset of the migraine symptoms. If treatment at the study site is not feasible or practicable within 4 hours after onset of migraine symptoms, subjects should use their usual medication for that headache and attempt to visit the clinic for treatment as soon as possible (within 4 hours) after onset of their next migraine headache. Dosing must occur within 60 days after enrollment (see Post-enrollment Period below). • At clinic check-in for treatment, study personnel will verify eligibility for closing regarding the criteria for a qualifying headache and adherence to post-enrollment study restrictions (see Eligibility for Dosing below). • Treatment will consist of a single oral dose of fospropofol disodium. […] Because the prevalence of migraine headaches is higher in women than in men, efforts will be made to enroll at least 50% women. • Subjects must meet the general inclusion and exclusion criteria listed below (Inclusion Criteria and Exclusion Criteria) at screening to be enrolled in the study. To be eligible for fospropofol disodium treatment after onset of a migraine headache, enrolled subjects must meet criteria specific to the presenting headache at clinic check-in (see Qualifying Headache below) and adhere to study restrictions specific to the period between enrollment and clinic check-in (see Post-enrollment Restrictions below). • Inclusion Criteria Subjects must meet all of the following criteria at screening to be enrolled in the study: • 1. Written informed consent approved by the Institutional Review Board (IRB) given before any study-related procedures are performed • 2. […] Complete abstinence alone can be used as a method of contraception. • 6. […] Able to comprehend the nature of the study, capable of giving written informed consent, and able to communicate effectively with clinic staff (as assessed by the investigator) • 8. Available to volunteer for the entire study duration and willing to adhere to all protocol requirements, including the post-enrollment restrictions (see Post-enrollment Restrictions below) • 9. Agrees not to post any information related to the study on any website or social media site (e.g., Facebook, Twitter, LinkedIn, Google+, etc.) until the entire trial has been completed • 10. Willing to forgo rescue medicine for at least 2 hours after initiation of treatment with study drug (see In-Clinic Rescue Medicine) • Exclusion Criteria Subjects to whom any of the following criteria apply at screening will be excluded: • 1. History of hemiplegic migraine (at any time in the past). • 2. History of headaches of any type occurring on ≥15 days/month during any of the 3 months prior to screening. • 3.

[1] = 1 hr postdose, No rescue, N = 18
[2] = 2 h postdose, No rescue, N = 18
[3] = 4 h postdose, No rescue, N = 18
[4] = 24 h postdose (D2), No rescue, N = 18
[5] = 24 h postdose (D2), Total, N = 18
[6] = 48 h postdose (D3), Rescue, N = 18
[7] = 48 h postdose (D3), Total, N = 18

CC(C)c1cccc(C(C)C)c1OCOP(=O)([O-])O.[Na+] [fospropofol disodium]
(33.3) %: Sustained headache pain relief: No, % (2-24 hours postdose, N = 18) | Severity of headache pain: Moderate pain, % [1] | Severity of headache pain: Moderate pain, % (1 hr postdose, Total, N = 18) | Most Bothersome Symptom: MBS present, % (2 h postdose, Total, N = 18) | Freedom from MBS at 2 hours: No, % (N = 18)
(66.7) %: Sustained headache pain relief: Yes, % (2-24 hours postdose, N = 18) | Most Bothersome Symptom: MBS free, % [2] | Most Bothersome Symptom: MBS free, % (2 h postdose, Total, N = 18) | Severity of headache pain: Pain free, % (4 h postdose, Total, N = 18) | Most Bothersome Symptom: MBS free, % (48 h postdose (Day 3), No rescue, N = 18) | Severity of headache pain: Pain free, % (Discharge, No rescue, N = 18) | Freedom from MBS at 2 hours: Yes, % (N = 18)
(72.2) %: Severity of headache pain: Pain free, % [4] | Severity of headache pain: Pain free, % [5] | Most Bothersome Symptom: MBS free, % (24 h postdose (Day 2), No rescue, N = 18) | Most Bothersome Symptom: MBS free, % (Discharge, No rescue, N = 18)
No and Yes: MBS (Y/N) 2 hr (most bothersome symptom present, 2 hr postdose, individual migraine subjects (N = 12))
(50) %: Sustained MBS-free response: No, % (2-48 hours postdose, N = 18) | Sustained MBS-free response: Yes, % (2-48 hours postdose, N = 18)
(55.6) %: Sustained MBS-free response: Yes, % (2-24 hours postdose, N = 18) | Severity of headache pain: Pain free, % [3]
Severe and Mild and None and Moderate: Headache Pain level 1 hr (1 hr postdose, individual migraine subjects (N = 12))
(16.7) %: Sustained headache pain freedom: Yes, % (2-48 hours postdose, N = 18) | Severity of headache pain: Moderate pain, % [2] | Severity of headache pain: Moderate pain, % (2 h postdose, Total, N = 18) | Severity of headache pain: Mild pain, % [4] | Severity of headache pain: Mild pain, % [5] | Most Bothersome Symptom: MBS free, % (Discharge, Rescue, N = 18) | Severity of headache pain: Mild pain, % (Discharge, Total, N = 18)
(27.8) %: Severity of headache pain: Mild pain, % (4 h postdose, Total, N = 18)
(83.3) %: Sustained headache pain freedom: No, % (2-48 hours postdose, N = 18) | Most Bothersome Symptom: MBS free, % (24 h postdose (Day 2), Total, N = 18) | Severity of headache pain: Pain free, % (48 h postdose (D3), No rescue, N = 18) | Severity of headache pain: Pain free, % [7]
(44.4) %: Sustained MBS-free response: No, % (2-24 hours postdose, N = 18)
(22.2) %: Sustained headache pain freedom: Yes, % (2-24 hours postdose, N = 18) | Severity of headache pain: Pain free, % [2] | Severity of headache pain: Pain free, % (2 h postdose, Total, N = 18) | Severity of headache pain: Mild pain, % [3] | Severity of headache pain: Moderate pain, % [5] | Severity of headache pain: Moderate pain, % [6] | Severity of headache pain: Moderate pain, % [7] | Freedom from both migraine headache pain and MBS at 2 hours: Yes, % (N = 18) | Freedom from migraine headache pain at 2 hours: Yes, % (N = 18)
(5.6) %: Severity of headache pain: Pain free, % [1] | Severity of headache pain: Pain free, % (1 hr postdose, Total, N = 18) | Severity of headache pain: Moderate pain, % [3] | Severity of headache pain: Mild pain, % (4 h postdose, Rescue, N = 18) | Severity of headache pain: Moderate pain, % (4 h postdose, Total, N = 18)
(61.1) %: Sustained headache pain relief: Yes, % (2-48 hours postdose, N = 18) | Most Bothersome Symptom: MBS present, % [1] | Most Bothersome Symptom: MBS present, % (1 hr postdose, Total, N = 18) | Severity of headache pain: Mild pain, % [2] | Severity of headache pain: Mild pain, % (2 h postdose, Total, N = 18)
(38.9) %: Sustained headache pain relief: No, % (2-48 hours postdose, N = 18) | Most Bothersome Symptom: MBS free, % [1] | Most Bothersome Symptom: MBS free, % (1 hr postdose, Total, N = 18)
(50.0) %: Severity of headache pain: Mild pain, % [1] | Severity of headache pain: Mild pain, % (1 hr postdose, Total, N = 18)
(11.1) %: Severity of headache pain: Severe pain, % [1] | Severity of headache pain: Severe pain, % (1 hr postdose, Total, N = 18) | Most Bothersome Symptom: MBS free, % (4 h postdose, Rescue, N = 18) | Most Bothersome Symptom: MBS present, % (4 h postdose, Rescue, N = 18) | Severity of headache pain: Pain free, % (4 h postdose, Rescue, N = 18) | Most Bothersome Symptom: MBS present, % (4 h postdose, Total, N = 18) | Severity of headache pain: Moderate pain, % [4] | Severity of headache pain: Moderate pain, % (24 h postdose (D2), Rescue, N = 18) | Most Bothersome Symptom: MBS free, % (24 h postdose (Day 2), Rescue, N = 18) | Severity of headache pain: Mild pain, % [6] | Severity of headache pain: Mild pain, % [7] | Most Bothersome Symptom: MBS free, % (48 h postdose (Day 3), Rescue, N = 18) | Severity of headache pain: Mild pain, % (Discharge, No rescue, N = 18) | Severity of headache pain: Pain free, % (Discharge, Rescue, N = 18)
Moderate and None and Mild: Headache Pain level 2 hr (2 hr postdose, individual migraine subjects (N = 12))
(88.9) %: Most Bothersome Symptom: MBS free, % (4 h postdose, Total, N = 18) | Most Bothersome Symptom: MBS free, % (Discharge, Total, N = 18)
(5-6) %: Severity of headache pain: Mild pain, % (Discharge, Rescue, N = 18)
Moderate and None and Mild and Mild [b]: Headache Pain level 4 hr (4 hr postdose, individual migraine subjects (N = 12))
(77.8) %: Sustained headache pain freedom: No, % (2-24 hours postdose, N = 18) | Most Bothersome Symptom: MBS free, % [3] | Most Bothersome Symptom: MBS free, % (48 h postdose (Day 3), Total, N = 18) | Severity of headache pain: Pain free, % (Discharge, Total, N = 18) | Freedom from both migraine headache pain and MBS at 2 hours: No, % (N = 18) | Freedom from migraine headache pain at 2 hours: No, % (N = 18)
No and Yes and Yes [b]: MBS (Y/N) 4 hr (most bothersome symptom present, 4 hr postdose, individual migraine subjects (N = 12))
Yes and No: MBS (Y/N) 1 hr (most bothersome symptom present, 1 hr postdose, individual migraine subjects (N = 12))
